# Tests used:
# [1] = test system: B. fragilis GM7000; assay: Minimum inhibitory concentration (MIC), agar plate dilution method; format: cell-based; settings: Bacteroides fragilis, GM7000; 10^6 CFU inoculated, 37° C., 18 hours
# Procedure: (§1) With regard to the novel compounds obtained according to this invention and the compounds of Reference Examples, their minimum inhibitory concentrations (MIC) were determined by the agar plate dilution method in accordance with the MIC measuring standard method of The Chemotherapeutic Society of Japan, whereby 10^6 colony forming units were inoculated and the minimal concentration to inhibit the microbial growth after inclubation at 37° C. for 18 hours were determined, as shown as μg/ml in Table.
# [2] = test system: S. aureus FAD209P JC-1; assay: as above; format: cell-based; settings: Staphylococcus aureus, FAD209PJC1; 10^6 CFU inoculated, 37° C., 18 hours
# Procedure: as §1
# [3] = test system: E. coli W3630/Rms213; assay: as above; format: cell-based; settings: Escherichia coli, W3630/RMS213, 18 h, read-out: minimum inhibitory concentration (MIC)
# Procedure: as §1
# [4] = test system: M. luteus ATCC9341; assay: as above; format: cell-based; settings: Micrococcus luteus, ATCC9341; 10^6 CFU inoculated, 37° C., 18 hours
# Procedure: as §1
# [5] = test system: K. pneumoniae PC1602; assay: as above; format: cell-based; settings: Klebsiella pneumoniae, PC1602; 10^6 CFU inoculated, 37° C., 18 hours
# Procedure: as §1
# [6] = test system: B. fragilis V-280-1; assay: as above; format: cell-based; settings: Bacteroides fragilis, V2801; 10^6 CFU inoculated, 37° C., 18 hours
# Procedure: as §1
# [7] = test system: Pr. vulgaris GN7919; assay: as above; format: cell-based; settings: Proteus vulgaris, GN7919; 10^6 CFU inoculated, 37° C., 18 hours
# Procedure: as §1
# [8] = test system: F. varium ATCC8501; assay: as above; format: cell-based; settings: Fusobacterium varium, ATCC8501; 10^6 CFU inoculated, 37° C., 18 hours
# Procedure: as §1
# [9] = test system: Ent. cloacae 963; assay: as above; format: cell-based; settings: Enterobacter cloacae, 963; 10^6 CFU inoculated, 37° C., 18 hours
# Procedure: as §1
# [10] = test system: Ser. marcescens IMA 1136; assay: as above; format: cell-based; settings: Serratia marcescens, IMA1136; 10^6 CFU inoculated, 37° C., 18 hours
# Procedure: as §1
# [11] = test system: E. coli NIHI JC-2; assay: as above; format: cell-based; settings: Escherichia coli, NIHIJC2; 10^6 CFU inoculated, 37° C., 18 hours
# Procedure: as §1
# [12] = test system: Pr. morganii IFO3848; assay: as above; format: cell-based; settings: Morganella morganii, IFO3848; 10^6 CFU inoculated, 37° C., 18 hours
# Procedure: as §1
# [13] = test system: Al. fecalis IFO13111; assay: as above; format: cell-based; settings: 10^6 CFU inoculated, 37° C., 18 hours
# Procedure: as §1
# [14] = test system: E. coli W3630/Rms212; assay: as above; format: cell-based; settings: Escherichia coli, W3630/RMS212, 18 h, read-out: minimum inhibitory concentration (MIC)
# Procedure: as §1
# [15] = test system: S. pyogenenes; assay: Sensitivity of clinically isolated strains; format: cell-based; settings: clinical isolates
# [16] = test system: A. calcoaceticus; assay: Sensitivity of clinically isolated strains; format: cell-based; settings: Acinetobacter calcoaceticus; clinical isolates
# Procedure: (§2) With regard to the novel compound, SUN 5555, as obtained according to this invention, sensitivities were determined toward the S. aureus strain 87, E. coli strain 88, Klebsiella sp. strain 63, P. mirabillis strain 30, P. vulgaris strain 41, M. morganii strain 29, P. rettgeri strain 17, S. marcescens strain 88, A. calcoaceticus strain 57 and H. influenza strain 25. The determinations were carried out in accordance with the minimal growth inhibitory concentration measuring method as specified by The Chemotherapeutic Society of Japan, with the results being shown […], respectively.
# [17] = test system: P. vulgaris; assay: Sensitivity of clinically isolated strains; format: cell-based; settings: Proteus vulgaris
# Procedure: as §2
# [18] = test system: E. coli; assay: Sensitivity of clinically isolated strains; format: cell-based; settings: Escherichia coli; clinical isolates
# Procedure: as §2
# [19] = test system: Methycillin-resistant S. aureus; assay: Sensitivity of clinically isolated strains; format: cell-based; settings: Staphylococcus aureus
# Procedure: as §2
# [20] = test system: P. rettgeri; assay: Sensitivity of clinically isolated strains; format: cell-based; settings: Providencia rettgeri; clinical isolates
# Procedure: as §2
# [21] = test system: Klebsiella sp.; assay: Sensitivity of clinically isolated strains; format: cell-based; settings: clinical isolates
# Procedure: as §2
# [22] = test system: H. influenza; assay: Sensitivity of clinically isolated strains; format: cell-based; settings: clinical isolates
# Procedure: as §2
# [23] = test system: P. mirabillis; assay: Sensitivity of clinically isolated strains; format: cell-based; settings: clinical isolates
# Procedure: as §2
# [24] = test system: S. marcescens; assay: Sensitivity of clinically isolated strains; format: cell-based; settings: Serratia marcescens; clinical isolates
# Procedure: as §2
# [25] = test system: M. morganii; assay: Sensitivity of clinically isolated strains; format: cell-based; settings: Morganella morganii; clinical isolates
# Procedure: as §2
# [26] = test system: S. aureus; assay: Sensitivity of clinically isolated strains; format: cell-based; settings: Staphylococcus aureus; clinical isolates
# Procedure: as §2
# [27] = test system: E. coli KC-14; assay: Therapeutic effect against experimental infection in mice (ED50); format: in vivo, E. coli; ICR strain male mice; settings: oral; survival after 6 days, Probit method; 8640 min
# Procedure: (§3) Out of the novel compound obtained according to this invention, SUN 4435 was selected to carry out a treatment experiment with infected animals. As an animal, there were employed ICR strain male mice (5-weeks aged, with an average body weight of 29.1 g), which were infected intraperitoneally with a test microorganism, S. aureus Smith or E. coli KC-14, and 24 hours later, treated by subcutaneous or oral application of SUN 4435 or SUN 5555. ED50 values were determined from the survival rates found after 6 days in accordance with the Probit method.
# [28] = test system: S. aureus Smith; assay: as above; format: in vivo, S. aureus; ICR strain male mice; settings: oral; survival after 6 days, Probit method; 8640 min
# Procedure: as §3
# [29] = Acute toxicity test; format: in vivo; settings: intravenous
# Procedure: Out of the novel compounds obtained according to this invention, SUN 4435 and SUN 5555 were selected to carry out an acute toxicity test. As an animal, there were employed ICR strain mice (4-weeks aged), which were treated by oral and intravenous application of the compounds.
# [30] = literature; cited from earlier work
compound,measurement,setting,value
"C[C@@H](O)[C@H]1C(=O)N2C(C(=O)O)=C([C@H]3COCCO3)S[C@H]12 [SUN 4771, Potassium (1'R, 2""R, 5R, 6S)-6-(1'-hydroxyethyl)-2-(2""-para-dioxanyl)penem-3-carboxylate]",MIC,[1],0.025 µg/mL
same,MIC,[2],0.05 µg/mL
same,MIC,[3],0.73 µg/mL
same,MIC,[4],0.1 µg/mL
same,MIC,[5],0.05 µg/mL
same,MIC,[6],0.05 µg/mL
same,MIC,[7],0.78 µg/mL
same,MIC,[8],0.78 µg/mL
same,MIC,[9],3.13 µg/mL
same,MIC,[10],6.25 µg/mL
same,MIC,[11],1.56 µg/mL
same,MIC,[12],6.25 µg/mL
same,MIC,[13],0.78 µg/mL
same,MIC,[14],1.56 µg/mL
"C[C@@H](O)[C@H]1C(=O)N2C(C(=O)O)=C([C@H]3CCCO3)S[C@H]12 [SUN 5555, Sodium (1'R, 2""R, 5R, 6S)-6-(1'-hydroxyethyl)-2-(2""-tetrahydofuranyl)penem-3-carboxylate]",MIC50,[15],< 0.025 µg/mL
same,MIC90,[15],< 0.025 µg/mL
same,MIC50,[16],6.25 µg/mL
same,MIC90,[16],25 µg/mL
same,MIC50,[17],3.13 µg/mL
same,MIC90,[17],6.25 µg/mL
same,MIC50,[18],0.78 µg/mL
same,MIC90,[18],1.56 µg/mL
same,MIC50,[19],1.56 µg/mL
same,MIC90,[19],> 100 µg/mL
same,MIC50,[20],1.56 µg/mL
same,MIC90,[20],6.25 µg/mL
same,MIC50,[21],0.78 µg/mL
same,MIC90,[21],1.56 µg/mL
same,MIC50,[22],0.39 µg/mL
same,MIC90,[22],0.78 µg/mL
same,MIC50,[23],3.13 µg/mL
same,MIC90,[23],6.25 µg/mL
same,MIC50,[24],1.56 µg/mL
same,MIC90,[24],6.25 µg/mL
same,MIC50,[25],1.56 µg/mL
same,MIC90,[25],6.25 µg/mL
same,MIC50,[26],0.1 µg/mL
same,MIC90,[26],0.2 µg/mL
same,ED50,[27],13.9 mg/kg
same,ED50,[28],5.6 mg/kg
same,survival,"[29]; 3 g/kg, two male and female mice",survived
same,survival,"[29]; 5 g/kg, five male mice",one out of five male mice
CCSC1=C(C(=O)O)N2C(=O)[C@H]([C@@H](C)O)[C@H]2S1 [Sch 29482],activity,[30],strong activity

# — patent US4997829A, “Penem compounds, and use thereof” (Suntory Limited, priority 1985, dated 1991)
